# Values of other authors, collected in patent US8642577B2 (priority 2005, dated 2014).
# Tested on: poxvirus
# Details: in vivo, po
row,Structure (SMILES),activity against poxvirus when given orally
1,"Nc1ccn(C[C@@H](CO)OCP(=O)(O)O)c(=O)n1 [CDV, cidofovir]",inactive when given orally
2,"Nc1ccn(C[C@H]2COP(=O)(O)CO2)c(=O)n1 [cCDV, cyclic cidofovir]",inactive when given orally
